Columns and labels:
[1] = test system: human liver cells; experiment: PC biosynthesis of human liver cells (labeled choline incorporation into PC); format: cell-based; conditions: for Alteration in cellular PC biosynthesis: human liver cells incubated 90 minutes, 100 mM ethanol or 1 mM acetaminophen
Protocol: (§1) PC biosynthesis in cultured cells: Aliquots (0.01 ml) of DMSO and water or DMSO and water containing various agents were added to medium with 2-hour monolayers of cells. After the appropriate agent-incubation period, a 0.02 ml aliquot of [^3H]-choline (0.2 μCi and 15 pmoles of choline]) was added to Waymouth 752/1 {1.25 ml} media. Incubations were stopped after 90 minutes by addition of 2 ml of methanol containing 1% 1N HCl. Cells were removed from the culture dishes by scraping with TEFLON™-coated spatula and placed in glass test tubes. (Lamb, et al., Hepatology 19: 174 (1994))
(§2) PC extraction procedure: Two ml of chloroform and 0.5 ml of water were added to each sample. Tubes were vortexed and centrifuged for 5 minutes to clear the upper and lower phases. The upper phase was aspirated and the lower phase washed by adding 2 ml of wash solution containing 50% methanol, 45% water and 5% 7.4% KCl. The samples were vortexed and centrifuged 5 minutes to clear the upper and lower phases. The upper phase was aspirated and the lower phase was washed again in 2 ml wash solution. After the phases were cleared by centrifugation, the lower phase was carefully removed, placed in a glass test tube, dried, solubilized in scintillation fluid and counted in a Beckman beta counter. Agent-induced alterations in the incorporation of labeled choline into PC was used as a measure of changes in cellular PC biosynthesis.
PC biosynthesis in isolated cells: Aliquots (0.75 ml) of Waymouth 752/1 media were placed in glass test tubes. Aliquots (0.01) of DMSO and water or DMSO and water containing various test agents were added to the tubes along with 0.02 ml [^3H]-choline [0.2 μCi and 15 pmoles choline]. Incubations were started by adding 0.5 ml aliquotes of cells suspended in Waymouth 752/1 media to the test tubes and placing the tubes in a shaking water bath at 37° C. Incubations were stopped after the appropriate incubation period (2-90 minutes) by addition of 2 ml of methanol containing 1% 1N HCl. Labeled PC was extracted by methods described above for cultured cells. […]

[2] = test system: rat liver cells; experiment: PC biosynthesis of rat liver cells (labeled choline incorporation into PC); format: cell-based; conditions: for Alteration in cellular PC biosynthesis: rat liver cells incubated 90 minutes, 100 mM ethanol or 1 mM acetaminophen
[3] = test system: cultured hepatocytes; experiment: PC biosynthesis in primary cultures of adult rat hepatocytes, 72 h incubation; format: cell-based; conditions: for Change in cellular PC biosynthesis / Effect on the ethanol/acetaminophen-induced decrease in cellular PC biosynthesis: 72 hours; for Change in cellular PC biosynthesis: 100 mM ethanol, 1 mM acetaminophen; for Effect on the ethanol/acetaminophen-induced decrease in cellular PC biosynthesis: co-incubation with 100 mM ethanol or 1 mM acetaminophen
Protocol: Male sprague Dawley rats (Zivic-Miller) weighing 200 to 350 grams were treated with a 50 mg/kg dose of phenobarbital (ip) for 3 days prior to perfusion. During this 3 day period, the animals were also given water ad libitum containing 0.1% sodium phenobarbital. The animal was anesthetized with ether under a fume hood, then transferred to the surgical table with the abdomen exposed. The belly was shaved and cleansed with 70% ethanol and Clinidine. The abdominal skin was removed with scissors and forceps. An incision was made along the base of the abdomen and the renal artery was tied off.
After the hepatic vein was cannulated with a 16 gauge catheter, the liver was washed with a balanced salt solution containing EDTA and Tricine. The hepatic artery was cannulated with a 16 gauge catheter. After 5 minutes of reverse flow perfusion was practiced to facilitate the wash cycle. After the blood is washed from the liver, the color of the liver changes from deep red to a brownish color.
The liver was then infused with Collagenase solution (112.5 mg/300 ml of Waymouth 752/1 media) bubbled with 5% CO2. After 5 minutes, reverse flow of Collagenase into the liver was accomplished, followed by reverse to normal flow after 5 minutes. Normal flow was continued until liver tissue was breaking down and ready for collection. Complete liver wash and perfusion should take about 30 minutes.
The perfused liver was collected with a strainer and transferred to an Erlenmeyer flask containing 50 ml of original Collagenase solution. The liver was minced using a gyratory water bath at 37° C. and allowed to swirl for no longer than 15 minutes. The solution was then filtered through a sterile gauze into centrifuge tubes and spun in a table top centrifuge for 5 minutes at 1000 rpm. (70×g). Aspirate media and suspended cells were placed in Waymouth 752/1 media containing 20% isodensity Percol and were then centrifuged for 4 minutes at 70×g. Cells were washed three times and resuspended in Waymouth 752/1 media. Samples of 0.5 ml were plated on 35 mm collagen-coated plastic culture dishes containing 0.75 ml of supplemented Waymouth 752/1 media.
as §1, §2

[4] = test system: cultured rat liver cells; experiment: PC biosynthesis of cultured rat liver cells from 3 and 20 month-old rats, 24 h; format: cell-based; conditions: 1 mM APAP, 100 mM ETOH, mean ± SEM of nine values; for PC biosynthesis, 3 Month: cells from 3 month-old male rats; for PC biosynthesis, 20 Month: cells from 20 month-old male rats
Protocol: as §1, §2

[5] = test system: cultured astrocyte; experiment: Cultured astrocyte PC biosynthesis; format: cell-based; conditions: for PC biosynthesis, Percent control of + SEM: cultured astrocytes, 100 mM ethanol, 1 mM APAP, 1 mM THC, 1 mM 4-MP, alone or combined
[6] = test system: rat red blood cells; experiment: Rat RBC PC biosynthesis; format: cell-based; conditions: rat RBC's, 10 minutes incubation
[7] = test system: human red blood cells; experiment: PC biosynthesis of human RBC's; format: cell-based; conditions: for PC biosynthesis percent of control ± SEM: 30 minutes incubation, 100 mM ethanol, 1 mM APAP, 1 mM THC, 10 mM allyl alcohol, 1 mM cocaine, 1 mM BTM, with and without 4-MP
[8] = test system: cells isolated from rat lung; experiment: PC biosynthesis in cells isolated from rat lung; format: cell-based; conditions: 1 mM APAP, 30 minutes
[9] = test system: cells isolated from rat intestine; experiment: PC biosynthesis in cells isolated from rat intestine; format: cell-based; conditions: 1 mM APAP, 30 minutes
[10] = test system: erythrocytes; experiment: PC biosynthesis in cells isolated from rat blood (erythrocytes); format: cell-based; conditions: 1 mM APAP, 30 minutes
Protocol: Preparation of red cell fractions: Rat or human blood was placed in Sorval tubes and, centrifuged at 3000 rpm for 10 minutes under refrigeration. The supernate was removed and the pellet of RBC's resuspended in PBS at 4 times the volume of the supernate. This may be frozen in 2 ml aliquots at −70° C.

[11] = test system: brain cell fractions; experiment: PC biosynthesis of brain cell fractions; format: cell-based; conditions: brain cell fractions incubated 30 minutes; agent concentration (100 mM ethanol, 1 mM others)
Protocol: as §2
PC biosynthesis in isolated cells: Aliquots (0.75 ml) of Waymouth 752/1 media were placed in glass test tubes. Aliquots (0.01) of DMSO and water or DMSO and water containing various test agents were added to the tubes along with 0.02 ml [^3H]-choline [0.2 μCi and 15 pmoles choline]. Incubations were started by adding 0.5 ml aliquotes of cells suspended in Waymouth 752/1 media to the test tubes and placing the tubes in a shaking water bath at 37° C. Incubations were stopped after the appropriate incubation period (2-90 minutes) by addition of 2 ml of methanol containing 1% 1N HCl. Labeled PC was extracted by methods described above for cultured cells. Agent-induced increases in the incorporation of labeled choline into PC were used to measure increases in cellular PC biosynthesis.
Cells were isolated from brain homogenates according to the methods described in the methodology section under “PC biosynthesis in isolated cells”.

[12] = test system: erythrocytes; conditions: Ferrali, et al, Biochem Pharm. 38, 1819-1825 (1989); cited from earlier work
[13] = test system: cultured liver cells; experiment: PC biosynthesis of cultured liver cells incubated 24 and 72 hours with and without vitamin E phosphate; format: cell-based; conditions: 24 and 72 hours with and without 50 μM vitamin E phosphate
Protocol: After the appropriate agent-incubation period, a 0.02 ml aliquot of [^3H]-choline (0.2 μCi and 15 pmoles of choline]) was added to Waymouth 752/1 {1.25 ml} media. […] Cells were removed from the culture dishes by scraping with TEFLON™-coated spatula and placed in glass test tubes. (Lamb, et al., Hepatology 19: 174 (1994))
Alterations in PC biosynthesis were studied using cultured liver cells incubated 24 and 72 hours with and without 50 μM vitamin E phosphate (VEP).

CC(=O)Nc1ccc(O)cc1 [APAP, acetaminophen]
Alteration in cellular PC biosynthesis [1]: significantly (p<0.05) increase | Alteration in cellular PC biosynthesis [2]: significantly (p<0.05) increased | Change in cellular PC biosynthesis [3]: significant decrease | PC biosynthesis, 3 Month [4]: 137 ± 11% of control | PC biosynthesis, 20 Month [4]: 38 ± 2% of control | PC biosynthesis, Percent control of + SEM [5]: 159 ± 15 Percent control | PC biosynthesis % of Control ± SEM [6]: 655 ± 26 % of Control | PC biosynthesis percent of control ± SEM [7]: 512 ± 27% of control | PC biosynthesis percent of control ± SEM, lung [8]: 471 ± 38% of control | PC biosynthesis percent of control ± SEM, intestine [9]: 287 ± 13% of control | PC biosynthesis percent of control ± SEM, erythrocytes [10]: 236 ± 13% of control

ClC(Cl)(Cl)Br [BTM, bromotrichloromethane]
Agent-induced alterations in PC biosynthesis, Percent control of + SEM [11]: 194 ± 25 Percent control | PC biosynthesis % of Control ± SEM [6]: 533 ± 29 % of Control | PC biosynthesis percent of control ± SEM [7]: 728 ± 3% of control

Cc1cn[nH]c1 [4-MP, 4-methylpyrazole]
Effect on ethanol and acetaminophen-induced increases in cellular PC biosynthesis ([1]; 1 mM 4-methylpyrazole, 90 minutes, with 100 mM ethanol or 1 mM acetaminophen): significantly decreases | Effect on ethanol-induced and acetaminophen-induced increases in cellular biosynthesis ([2]; 4-methylpyrazole, 90 minutes, with 100 mM ethanol or 1 mM acetaminophen): significantly reduced | Effect on the ethanol/acetaminophen-induced decrease in cellular PC biosynthesis [3]: reduced | Effect on agent-induced increase in PC biosynthesis ([5]; 1 mM 4-MP with ethanol, APAP, THC or combinations): Å values without 4-MP are significantly increased (p < 0.05) above controls. 4-MP significantly reduced (p < 0.05) the agent-induced increase in PC biosynthesis. | Effect on drug-induced increases in PC biosynthesis ([7]; 30 minutes, 4-MP added to each agent): significantly (p<0.05) reduces

iron
PC biosynthesis % of Control ± SEM [6]: 919 ± 73 % of Control

C=CCO [allyl alcohol]
PC biosynthesis % of Control ± SEM [6]: 1315 ± 99 % of Control | PC biosynthesis percent of control ± SEM [7]: 377 ± 3% of control | Adverse effects on erythrocytes [12]: could not demonstrate the adverse effects

Cc1c(C)c2c(c(C)c1OC(=O)CCC(=O)O)CC[C@@](C)(CCC[C@H](C)CCC[C@H](C)CCCC(C)C)O2 [VES, vitamin E succinate]
Effect on the ethanol/acetaminophen-induced decrease in cellular PC biosynthesis [3]: reduced

C=CC=O [acreolein]
Adverse effects on erythrocytes [12]: deleterious effects on the cells

Cc1c(C)c2c(c(C)c1OP(=O)(O)O)CCC(C)(CCCC(C)CCCC(C)CCCC(C)C)O2 (stereo not drawn) [vitamin E phosphate]
Alterations in PC biosynthesis [13]: incubation time-dependent decreases in PC biosynthesis unless vitamin E phosphate was added

O=S(=O)([O-])[O-].[Fe+2] [FeSO4]
Agent-induced alterations in PC biosynthesis, Percent control of + SEM [11]: 226 ± 8 Percent control

COC(=O)[C@H]1[C@@H](OC(=O)c2ccccc2)C[C@@H]2CC[C@H]1N2C [cocaine]
PC biosynthesis % of Control ± SEM [6]: 458 ± 7 % of Control | PC biosynthesis percent of control ± SEM [7]: 292 ± 10% of control

C=CC(=O)O [acrylic acid]
Adverse effects on erythrocytes [12]: could not demonstrate the adverse effects

CCCCCc1cc(O)c2c(c1)OC(C)(C)[C@@H]1CCC(C)=C[C@@H]21 [THC, Δ-9-tetrahydrocannabinol]
Agent-induced alterations in PC biosynthesis, Percent control of + SEM [11]: 293 ± 21 Percent control | PC biosynthesis, Percent control of + SEM [5]: 201 ± 11 Percent control | PC biosynthesis % of Control ± SEM [6]: 1142 ± 65 % of Control | PC biosynthesis percent of control ± SEM [7]: 433 ± 30% of control

CCO [ethanol]
Alteration in cellular PC biosynthesis [1]: significantly (p<0.05) increase | Alteration in cellular PC biosynthesis [2]: significantly (p<0.05) increased | PC biosynthesis ([3]; 72 h, 100 mM ETOH, 1 mM APAP, 0.5 mM 4-MP, 200 units SOD, 800 units CAT, 2 mM DEF, 0.025 mM 20:4, 0.25 mM 16:0, 6-9 experimental values): 39 ± 2% of control | Change in cellular PC biosynthesis [3]: significant decrease | PC biosynthesis, 3 Month [4]: 147 ± 13% of control | PC biosynthesis, 20 Month [4]: 59 ± 1% of control | Agent-induced alterations in PC biosynthesis, Percent control of + SEM [11]: 173 ± 8 Percent control | PC biosynthesis, Percent control of + SEM [5]: 199 ± 14 Percent control | PC biosynthesis % of Control ± SEM [6]: 374 ± 19 % of Control | PC biosynthesis percent of control ± SEM [7]: 222 ± 9% of control

B1: CAT: catalase (protein, UniProt P00432 2-527, looked up)
Catalase: ADNRDPASDQMKHWKEQRAAQKPDVLTTGGGNPVGDKLNSLTVGPRGPLLVQDVVFTDEMAHFDRERIPERVVHAKGAGAFGYFEVTHDITRYSKAKVFEHIGKRTPIAVRFSTVAGESGSADTVRDPRGFAVKFYTEDGNWDLVGNNTPIFFIRDALLFPSFIHSQKRNPQTHLKDPDMVWDFWSLRPESLHQVSFLFSDRGIPDGHRHMNGYGSHTFKLVNANGEAVYCKFHYKTDQGIKNLSVEDAARLAHEDPDYGLRDLFNAIATGNYPSWTLYIQVMTFSEAEIFPFNPFDLTKVWPHGDYPLIPVGKLVLNRNPVNYFAEVEQLAFDPSNMPPGIEPSPDKMLQGRLFAYPDTHRHRLGPNYLQIPVNCPYRARVANYQRDGPMCMMDNQGGAPNYYPNSFSAPEHQPSALEHRTHFSGDVQRFNSANDDNVTQVRTFYLKVLNEEQRKRLCENIAGHLKDAQLFIQKKAVKNFSDVHPEYGSRIQALLDKYNEEKPKNAVHTYVQHGSHLSAREKANL
Effect on the ethanol/acetaminophen-induced decrease in cellular PC biosynthesis [3]: reduced

— patent US6858399B2, “Test for oxidative stress using cell suspensions” (priority 1998, dated 2005)
